31 compounds from US12152038B2, “Vasopressin receptor antagonists and products and methods related thereto” (Neumora Therapeutics, Inc., priority 2017, dated 2024) can be followed below.

Series [1] has as its target T1, human Arginine Vasopressin Receptor V2 (AVPR2) (Homo sapiens, UniProt P30518).
T1 construct: host or cells: 1321N1 (cAMPZen V2 assay ready frozen cells)
As to the kind of experiment: Vasopressin V2 receptor antagonist assay (TR-FRET cAMP, 1321N1 cells). In kind it is cell-based. On the procedure:
The purpose of the assay was to determine the inhibitory effect of synthesized compounds on the Vasopressin receptor 2. The assay was performed in commercially available 1321N1 cells expressing the human Arginine Vasopressin Receptor V2 (AVPR2) (Perkin Elmer #ES-363-CF). Arginine Vasopressin (AVP) evokes an increase in intracellular cAMP in these cells which is measured in a TR-FRET assay using a Europium cAMP tracer and ULight labelled antibody reagents contained in a LANCE Ultra cAMP kit (Perkin Elmer #TRF0263). Increases in cAMP in the assay result in a reduction in TR-FRET as the cAMP produced by the stimulated cells competes with the Eu-cAMP tracer for binding sites on the ULight labelled antibody. Test compounds were assessed for their ability to affect the magnitude of the response to AVP, with antagonists showing a concentration-dependent decrease in the AVP-mediated reduction in TR-FRET signal.
cAMPZen V2 assay ready cells were thawed at 37° C. and resuspended directly from frozen in 9 ml growth medium consisting of DMEM supplemented with 10% v/v fetal bovine serum, 1× non-essential amino acids, and 1 mM sodium pyruvate. Cells were spun at 1000 rpm for 3 minutes and the supernatant was carefully removed and discarded. The pellet was resuspended in 5 ml stimulation buffer and the cell density determined using the Vi-Cell automated cell counter. The cell suspension was diluted to a 0.2×10^6/ml suspension ready for plating. To all wells of a white 384-well Optiplate (Perkin Elmer #6007299) 5 μL of cells in stimulation buffer were dispensed (1,000 cells per well). Stimulation buffer consisted of HBSS (+Ca/+Mg) supplemented with 5 mM HEPES, 0.1% BSA stabiliser and 0.5 mM IBMX.
At the start of each assay day the potency of AVP was assessed and an EC80 concentration determined for subsequent compound profiling. Assays were performed by first an addition of 2.5 μl of control or test compound at 4× final concentration in stimulation buffer followed by 2.5 μl of AVP at 4× final concentration in stimulation buffer. After a 1 hour reaction, detection reagents were added by first an addition of 5 μl EU-cAMP tracer, followed by 5 μl ULight-anti-cAMP both diluted as per the manufacturer's instructions. After a one hour incubation, plates were ready to be read (signals then remained stable for up to 24 hours). Changes in time resolved fluorescence were monitored with excitation via a laser (337 nm) measuring both 615 nm and 665 nm emission wavelengths. […] For compound profiling, test compounds were dispensed by the Labcyte Echo (10-point curve, 1:3 dilutions) in a target 0.1 μl volume then diluted 750-fold in stimulation buffer containing 3% DMSO prior to addition to the cells. At the end of the incubation period, 2.5 μl of AVP in stimulation buffer was added at the previously determined EC80 concentration.
In-plate controls for the assay included a Tolvaptan concentration-response curve as the reference V2 antagonist and an AVP concentration-response curve to confirm the reproducibility of the EC80 used for the compound challenge.

Series [2] deals with T2, MDR1 (P-glycoprotein) (Homo sapiens, UniProt P08183).
T2 construct: host or cells: MDCK (MDR1-MDCK; wild-type MDCK as comparator)
The series is described as follows: MDR1-MDCK permeability and efflux assay (Papp, efflux ratio, effective efflux ratio). It counts as in vitro ADME. The note with it: dog; for Papp A→B at 1 h, 10 μM: pH 7.4, read-out: Papp AB MDR1. As for the experimental part: (§1) The MDR1-MDCK effective efflux assay was performed as described in the BioFocus Standard Operating Procedure, ADME-SOP-56. Both wild-type (WT) and MDR1-MDCK cells (Solvo Biotechnology) were seeded onto 24-well Transwell plates at 2.35×10^5 cells per well and used in confluent monolayers after a 3 day culture at 37° C. under 5% CO2. For both cell types, test and control compounds (propranolol, vinblastine) were added (10 μM, 0.1% DMSO final, n=2) to donor compartments of the Transwell plate assembly in assay buffer (Hanks balanced salt solution supplemented with 25 mM HEPES, adjusted to pH 7.4) for both apical to basolateral (A>B) and basolateral to apical (B>A) measurements. Incubations were performed at 37° C., with samples removed from both donor and acceptor chambers at T=0 and 1 hour and compound analysed by mass spectrometry (LC-MS/MS) including an analytical internal standard.
(§2) Apparent permeability (Papp) values were determined from the relationship: Papp=[CompoundAcceptor T=end]×V Acceptor/([Compound Donor T=0]×V Donor)/incubation time×V Donor/Area×60×10^−6 cm/s
(§3) In this equation, V is the volume of each Transwell compartment (apical 125 μL, basolateral 600 μL), and concentrations are the relative MS responses for compound (normalized to internal standard) in the donor chamber before incubation and acceptor chamber at the end of the incubation, and Area is the area of cells exposed for drug transfer (0.33 cm^2).
(§4) Efflux ratios (Papp B>A/Papp A>B) were calculated for each compound from the mean Papp values in each direction for both wild-type and MDR1-MDCK cells.
(§5) In order to confirm the involvement of MDR1 in any efflux seen, an “effective efflux ratio” (EER) was calculated by comparing compound efflux ratios (ER) in the two cell types by the following equation: EER=ER(MDR1-MDCK)/ER(wild-type MDCK)
(§6) This ratio illustrates the effect of the over-expressed MDR1 normalised for the background movement of compound through the wild-type cells.
(§7) Lucifer Yellow (LY) was added to the apical buffer in all wells to assess viability of the cell layer. […] Recoveries<50% indicates compound solubility, stability or binding issues, thereby reducing the reliability of a result.
(§8) The inherent ability of a potential drug molecule to penetrate the blood brain barrier and avoid efflux by transporters expressed in the brain, can be roughly correlated with the Papp(A-B) and the efflux ratio (as defined above), respectively. A potential drug molecule with an apparent permeability<7 (10^−6 cm/sec) has low permeability (+), >7 (10^−6 cm/sec) but <10 (10^−6 cm/sec) has moderate permeability (++), >10 (10^−6 cm/sec) but <20 (10^−6 cm/sec) has good permeability (+++), and >20 (10^−6 cm/sec) is highly permeable (++++). High permeability in the WT and MDCK II cell permeability assay increases the probability of blood brain barrier penetration and access to the CNS. A potential drug molecule in the above assay system with an efflux ratio or effective efflux ratio of <1 has low probability of being an efflux substrate (++++), >1 but <2 has moderate probability of being an efflux substrate (+++), >2 but <3 has has an increased probability of being an efflux substrate (++), and >3 has a high probability of being an efflux substrate (+). If a potential drug molecule is an efflux substrate, the molecule will have a low probability of reaching exposures in the brain (site of action) that will result in efficacious levels of receptor occupancy.

The nature of series [3]: Wild-type MDCK permeability and efflux assay (Papp, efflux ratio). It counts as in vitro ADME. The note with it: dog, pH 7.4, wild-type MDCK cells; for efflux ratio at 1 h, 10 μM: Papp B>A/Papp A>B, read-out: ER WT (Efflux Ratio). As for the experimental part:
as §1, §2, §3, §4, §5, §6, §7, §8

Setting [4] is: MDCK-MDR1, pH 7.4, ER(MDR1-MDCK)/ER(wild-type MDCK), read-out: EER (Effective Efflux Ratio).
Setting [5] is: MDCK-MDR1, pH 7.4, Papp B>A/Papp A>B, MDR1-MDCK cells, read-out: ER MDR1 (Efflux Ratio).

What is called pIC50 is the IC50 on a negative log10 scale, so that one unit is a factor of ten.

pIC50: −log10 of the molar value. Like-named read-outs stand apart in the source and are kept apart here. Some results are limits rather than exact numbers.

T2 sequence (P08183 whole entry): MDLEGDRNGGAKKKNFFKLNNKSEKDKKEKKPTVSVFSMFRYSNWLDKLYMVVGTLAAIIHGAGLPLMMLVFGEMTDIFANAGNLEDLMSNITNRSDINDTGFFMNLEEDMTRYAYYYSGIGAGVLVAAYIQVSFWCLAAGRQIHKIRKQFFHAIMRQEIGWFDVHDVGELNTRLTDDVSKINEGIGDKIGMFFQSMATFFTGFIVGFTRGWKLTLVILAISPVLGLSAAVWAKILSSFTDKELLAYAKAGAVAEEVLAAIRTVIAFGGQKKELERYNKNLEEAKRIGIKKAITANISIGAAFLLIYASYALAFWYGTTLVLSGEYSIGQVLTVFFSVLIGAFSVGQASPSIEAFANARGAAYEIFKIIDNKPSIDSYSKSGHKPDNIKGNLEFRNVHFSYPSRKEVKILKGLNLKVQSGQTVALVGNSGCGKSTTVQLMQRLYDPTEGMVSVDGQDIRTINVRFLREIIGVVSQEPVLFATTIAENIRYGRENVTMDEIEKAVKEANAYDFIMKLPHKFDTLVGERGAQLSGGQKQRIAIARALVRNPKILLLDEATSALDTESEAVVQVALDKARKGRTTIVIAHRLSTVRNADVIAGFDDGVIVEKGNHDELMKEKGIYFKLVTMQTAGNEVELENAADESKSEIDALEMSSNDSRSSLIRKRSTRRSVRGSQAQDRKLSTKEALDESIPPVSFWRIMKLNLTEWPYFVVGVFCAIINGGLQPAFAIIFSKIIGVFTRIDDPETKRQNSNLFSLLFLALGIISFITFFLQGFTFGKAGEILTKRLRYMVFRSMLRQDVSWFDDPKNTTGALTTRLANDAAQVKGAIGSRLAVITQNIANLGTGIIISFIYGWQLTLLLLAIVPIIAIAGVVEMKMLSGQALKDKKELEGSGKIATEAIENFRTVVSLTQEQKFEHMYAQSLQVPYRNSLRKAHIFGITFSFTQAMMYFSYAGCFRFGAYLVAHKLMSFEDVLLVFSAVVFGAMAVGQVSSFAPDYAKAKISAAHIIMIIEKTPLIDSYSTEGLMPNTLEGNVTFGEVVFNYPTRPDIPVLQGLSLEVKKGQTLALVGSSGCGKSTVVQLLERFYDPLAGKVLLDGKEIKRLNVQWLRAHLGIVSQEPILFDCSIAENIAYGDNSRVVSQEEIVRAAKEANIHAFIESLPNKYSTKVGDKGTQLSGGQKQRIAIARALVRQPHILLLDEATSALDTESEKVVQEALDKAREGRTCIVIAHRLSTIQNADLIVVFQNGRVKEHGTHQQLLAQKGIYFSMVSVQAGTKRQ
T1 sequence (P30518 whole entry): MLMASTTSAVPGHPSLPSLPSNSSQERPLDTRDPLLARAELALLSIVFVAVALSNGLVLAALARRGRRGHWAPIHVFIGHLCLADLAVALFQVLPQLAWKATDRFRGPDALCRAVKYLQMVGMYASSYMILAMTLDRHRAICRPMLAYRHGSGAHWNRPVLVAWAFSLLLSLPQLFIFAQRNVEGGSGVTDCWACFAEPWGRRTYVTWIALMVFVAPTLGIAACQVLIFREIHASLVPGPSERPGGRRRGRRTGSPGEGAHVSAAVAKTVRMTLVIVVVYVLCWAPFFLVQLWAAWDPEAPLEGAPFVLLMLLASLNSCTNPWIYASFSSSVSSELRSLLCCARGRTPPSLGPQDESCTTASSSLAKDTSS

`Cc1cnc(N2CC3(CN(C(=O)N4c5ccc(Cl)cc5OCC4C)C3)C2)nc1` (stereo not drawn) [20-13]: the pIC50 in series [1] was 6.30 to 7.00. The compound `O=C(N1CC2(C1)CN(c1ccccn1)C2)N1CCc2cc(Cl)ccc21` [1-77] had a pIC50 in series [1] of at most 6.00. Consider `CC1CN(C(=O)N2CC3(C2)CN(c2ccc(F)cn2)C3)c2ccc(F)cc2O1` (single isomer, unassigned) [9-4-B], for which the pIC50 in series [1] was at most 6.00. On the same count and under the same terms, under `O=C(N1CC2(C1)CN(c1ccc(F)cn1)C2)N1CCOc2cc(F)c(F)cc21` [9-6] stands at most 6.00; under `O=C(N1CC2(C1)CN(c1ncc(F)cn1)C2)N1CCOc2cc(Cl)ccc21` [4-2], at most 6.00. For the compound `CC1COc2cc(Cl)ccc2N1C(=O)N1CC2(C1)CN(c1cccnc1)C2` (single isomer, unassigned) [20-1-B], the pIC50 in series [1] was at most 6.00.

In series [1], `O=C(N1CC2(C1)CN(c1cnccn1)C2)N1CCOCc2cc(Cl)ccc21` [8-13] gave a pIC50 of at most 6.00. Same read-out and setting: under `O=C(N1CC2(C1)CN(c1ncccn1)C2)N1CCOc2cc(Cl)ccc21` [1-4] stands at most 6.00. Take `CC1COc2cc(F)ccc2N1C(=O)N1CC2(C1)CN(c1ccc(F)cn1)C2` (stereo not drawn) [12-1, (7-fluoro-3-methyl-2,3-dihydro-4H-benzo[b][1,4]oxazin-4-yl)(6-(5-fluoropyridin-2-yl)-2,6-diazaspiro[3.3]heptan-2-yl)methanone]: in series [1], the pIC50 is 6.30 to 7.00. Turning to `O=C(N1CC2(C1)CN(c1cc(F)ccn1)C2)N1CCc2cc(Cl)ccc21` [1-79], the pIC50 in series [1] is at most 6.00. Compound `CC1COc2cc(Cl)c(F)cc2N1C(=O)N1CC2(C1)CN(c1cccnc1)C2` (stereo not drawn) [19-6] showed a pIC50 in series [1] of at most 6.00. Same read-out and setting: under `O=C(N1CC2(C1)CN(c1cccnn1)C2)N1CCOc2cc(Cl)c(F)cc21` [1-81] stands at most 6.00; under `CC1CN(C(=O)N2CC3(C2)CN(c2ccc(F)cn2)C3)c2ccc(Cl)cc2O1` (single isomer, unassigned) [9-3-A], at most 6.00; under `O=C(N1CC2(C1)CN(c1ncccc1F)C2)N1CCc2cc(Cl)ccc21` [1-76], at most 6.00.

As to `CC1Cc2cc(Cl)ccc2N1C(=O)N1CC2(C1)CN(c1ccc(F)cn1)C2` (stereo not drawn) [8-16], the pIC50 in series [1] was over 7.00. `CC1COc2cc(F)ccc2N1C(=O)N1CC2(C1)CN(c1ncccn1)C2` (stereo not drawn) [18-1, (7-fluoro-3-methyl-2,3-dihydro-4H-benzo[b][1,4]oxazin-4-yl)(6-(pyrimidin-2-yl)-2,6-diazaspiro[3.3]heptan-2-yl)methanone] gave a negative-log IC50 (pIC50) in series [1] of at most 6.00. Take `CC1COc2cc(F)c(F)cc2N1C(=O)N1CC2(C1)CN(c1ncccn1)C2` (stereo not drawn) [19-1, (6,7-difluoro-3-methyl-2,3-dihydro-4H-benzo[b][1,4]oxazin-4-yl)(6-(pyrimidin-2-yl)-2,6-diazaspiro[3.3]heptan-2-yl)methanone]: the pIC50 in series [1] was at most 6.00. Same read-out and setting: under `Cc1cccnc1N1CC2(CN(C(=O)N3CCOc4cc(Cl)ccc43)C2)C1` [1-5] stands at most 6.00; under `CC1COc2cc(Cl)c(F)cc2N1C(=O)N1CC2(C1)CN(c1ncccn1)C2` (stereo not drawn) [19-2], at most 6.00. In series [1], `O=C(N1CC2(C1)CN(c1cnccn1)C2)N1CCC(O)c2cc(Cl)ccc21` (stereo not drawn) [13-3] showed a pIC50 of at most 6.00. Consider `COc1ccc2c(c1)OCCN2C(=O)N1CC2(C1)CN(c1ccc(F)cn1)C2` [9-2], for which the pIC50 in series [1] was at most 6.00. In series [1], `CC1COc2cc(Cl)ccc2N1C(=O)N1CC2(C1)CN(c1cccnn1)C2` (stereo not drawn) [9-1, (7-chloro-3-methyl-2,3-dihydro-4H-benzo[b][1,4]oxazin-4-yl)(6-(pyridazin-3-yl)-2,6-diazaspiro[3.3]heptan-2-yl)methanone] gave a pIC50 of at most 6.00. The same measure, in the same setting: under `Cc1cnc(N2CC3(CN(C(=O)N4c5ccc(Cl)cc5OCC4C)C3)C2)cn1` (single isomer, unassigned) [20-5-B] stands over 7.00. In series [1], `Cc1nc(N2CC3(CN(C(=O)N4c5ccc(Cl)cc5OCC4C)C3)C2)ncc1F` (stereo not drawn) [20-7] gave a pIC50 of 6.30 to 7.00. Take `O=C(N1CC2(C1)CN(c1ccc(F)cn1)C2)N1CCC(O)c2cc(Cl)ccc21` (stereo not drawn) [13-1, (6-chloro-4-hydroxy-3,4-dihydroquinolin-1(2H)-yl)(6-(5-fluoropyridin-2-yl)-2,6-diazaspiro[3.3]heptan-2-yl)methanone]: the efflux ratio at 1 h, 10 μM in series [2] (setting [4]) is over 3; in series [2] (setting [5]), over 3; in series [3], under 1. Also, the Papp A→B at 1 h, 10 μM in series [2] (MDR1-MDCK cells) and in series [3] was over 200 nm/s each time. Regarding `O=C(N1CC2(C1)CN(c1cccc(F)n1)C2)N1CCc2cc(Cl)ccc21` [1-78], the pIC50 in series [1] was at most 6.00.

With `O=C(N1CC2(C1)CN(c1ccc(F)cn1)C2)N1CCC(F)c2cc(Cl)ccc21` (stereo not drawn) [14-1, (6-chloro-4-fluoro-3,4-dihydroquinolin-1(2H)-yl)(6-(5-fluoropyridin-2-yl)-2,6-diazaspiro[3.3]heptan-2-yl)methanone], in series [1], the pIC50 was at most 6.00. In series [1], `CC1CN(C(=O)N2CC3(C2)CN(c2ccc(F)cn2)C3)c2ccc(Cl)cc2O1` (stereo not drawn) [9-3] showed a pIC50 of at most 6.00. The compound `CC1COc2cc(Cl)ccc2N1C(=O)N1CC2(C1)CN(c1cc(C#N)ccn1)C2` (stereo not drawn) [20-6] gave a pIC50 in series [1] of over 7.00. In turn, `CC1COc2cc(F)c(F)cc2N1C(=O)N1CC2(C1)CN(c1cccnn1)C2` (stereo not drawn) [19-3] had a negative-log IC50 (pIC50) in series [1] of at most 6.00.

In the case of `O=C(N1CC2(C1)CN(c1ccc(F)cn1)C2)N1CCOCc2cc(Cl)ccc21` [8-4], the efflux ratio at 1 h, 10 μM in series [2] (setting [4]), in series [2] (setting [5]) and in series [3] was 1 to 2 in each case. The Papp A→B at 1 h, 10 μM in series [2] (MDR1-MDCK cells) and in series [3] was over 200 nm/s throughout.
